# Patent EP1508334B1, “Water soluble extract from plant of solanum genus and the preparation process thereof, and pharmaceutical composition containing the water soluble extract” (G & E Herbal Biotechnology Co., Ltd., priority 2003, dated 2005)
# Assays:
# H441 = assay: MTS tetrazolium salt cytotoxicity assay; format: cell-based, human; details: different test concentrations / various dosages, 12 hrs, Fig. 8 and Fig. 12
# Description: In order to determine whether the water-soluble extract obtained from the plant of Solanum genus according to this invention has anti-cancer activity, the principal cancer cells of Hep3B, H441, and MCF-7 were used as analytic targets, in which Hep3B and H441 were purchased from American Type Culture Collection (ATCC, P.O. Box 1549, Manassas, VA 20108 USA), and MCF-7 was purchased from Food Industry Research and Development Institute (331 Shih-Pin Road, Hsinchu, 300 Taiwan R.O.C.).
# Hep3B was incubated in Dulbecco's Modified Eagle's medium (DMEM), while H441 and MCF-7 were incubated in RPMI-1640, both of the media containing 10% fetal bovine serum and 40 mg/L gentamycin.
# The cytotoxicity of cancer cells was determined using tetrazolium salt assay (MTS, Mosmann. T., 1983, Immmunol. Meth., 65, 55-63), which was conducted for the colorimetric determination of cell viability according to the manufacturer's procedures (CellTiter 96™ AQ, Promega, Madison, USA).
# Cells were seeded at 1x10^4 cells/well in a 96-well plate and incubated in 5% CO2 incubator at 37°C for at least 16 hrs. […] Upon completion of the reaction, absorbency in each well was determined at 490 nm by using ELISA reader 312e, Bio-TEK. Each value was expressed as means ± SD from three experiments.
# Cytotoxicity was determined by MTS tetrazolium salt assay disclosed in Pharmacological assay 1. […]
# [1] = Dissolution in water (applicant's observations); format: physicochemical; details: for direct dissolution in water: compounds purified by HPLC from the water-soluble extract; for concentration at which precipitated: in water after being first dissolved in DMSO; for dissolution in water: without DMSO pre-treatment
# Trypanosoma cruzi = details: cited from earlier work
# Tribolium castaneum = details: cited from earlier work
# Manduca sexta = details: cited from earlier work
# Phoma medicaginis = details: cited from earlier work
# Rhizoctomia solani = details: cited from earlier work
# Lymnaea cubensis = details: cited from earlier work
# Biomphalaria glabrata = details: cited from earlier work
# JTC-26 = details: cited from earlier work
# [2] = tested on: human PLC/PRF/5 hepatoma cells; details: cited from earlier work
# Hep3B = details: cited from earlier work
# [3] = tested on: normal skin fibroblast cells; details: cited from earlier work
# TNF receptor I = details: cited from earlier work
SMILES,inhibiting the growth of H441 (H441),direct dissolution in water [1],concentration at which precipitated [1],dissolution in water [1],inhibiting growth of Trypanosoma cruzi (Trypanosoma cruzi),inhibiting growth of Tribolium castaneum (Tribolium castaneum),inhibiting growth of Manduca sexta (Manduca sexta),inhibiting growth of Phoma medicaginis (Phoma medicaginis),inhibiting growth of Rhizoctomia solani (Rhizoctomia solani),inhibiting growth of Lymnaea cubensis (Lymnaea cubensis),inhibiting growth of Biomphalaria glabrata (Biomphalaria glabrata),growth of JTC-26 (JTC-26),growth of human PLC/PRF/5 hepatoma cells [2],death of cells by apoptosis pathway (Hep3B),death of cells by apoptosis pathway [3],gene expression of TNF receptor I (TNF receptor I)
C[C@@H]1CC[C@@]2(NC1)O[C@H]1C[C@H]3[C@@H]4CC=C5C[C@@H](O[C@@H]6O[C@H](CO)[C@@H](O[C@@H]7O[C@@H](C)[C@H](O)[C@@H](O)[C@H]7O)[C@H](O)[C@H]6O[C@@H]6O[C@@H](C)[C@H](O)[C@@H](O)[C@H]6O)CC[C@]5(C)[C@H]4CC[C@]3(C)[C@H]1[C@@H]2C [solamargine],effectively inhibited,directly dissolved in water,more than 5 mg/ml,could not dissolve in water,capable of inhibiting growth,capable of inhibiting growth,capable of inhibiting growth,capable of inhibiting growth,capable of inhibiting growth,capable of inhibiting growth,capable of inhibiting growth,inhibits the growth,inhibits the growth,increases death of cells,increases death of cells,up-regulated
C[C@@H]1CC[C@@]2(NC1)O[C@H]1C[C@H]3[C@@H]4CC=C5C[C@@H](O[C@@H]6O[C@H](CO)[C@H](O)[C@H](O[C@@H]7O[C@H](CO)[C@@H](O)[C@H](O)[C@H]7O)[C@H]6O[C@@H]6O[C@@H](C)[C@H](O)[C@@H](O)[C@H]6O)CC[C@]5(C)[C@H]4CC[C@]3(C)[C@H]1[C@@H]2C [solasonine],effectively inhibited,directly dissolved in water,more than 5 mg/ml,could not dissolve in water,–,–,–,–,–,–,–,–,–,–,–,–
